Measurements reported in patent publication US12492173B2, “Herbicidal substituted N-tetrazolyl aryl carboxamides” (Bayer Aktiengesellschaft, priority 2019, dated 2025).

What was measured:
Type in all cases: in vivo
Abutilon theophrasti [1] = experiment: Pre-emergence herbicidal action, ABUTH; conditions: dosage 320 g/ha
Description: (§1) 1. Pre-Emergence Herbicidal Action Against Harmful Plants Seeds of monocotyledonous and dicotyledonous weed plants and crop plants are laid out in sandy loam soil in wood-fiber pots and covered with soil. The compounds of the invention, formulated in the form of wettable powders (WP) or as emulsion concentrates (EC), are then applied to the surface of the covering soil in the form of an aqueous suspension or emulsion at a water application rate equating to 600 to 800 l/ha, with addition of 0.2% wetting agent. After the treatment, the pots are placed in a greenhouse and kept under good growth conditions for the trial plants. The damage to the test plants is scored visually after a test period of 3 weeks by comparison with untreated controls (herbicidal activity in percent (%): 100% activity=the plants have died, 0% activity=like control plants). […] The tables below illustrate, in an exemplary manner, the […] herbicidal action of the compounds according to the invention, the herbicidal activity being stated in percent. [table] In the experiments that follow, herbicidal action of numerous inventive compounds and the known compounds that are structurally closest from D1 (WO 2012/028579 A1) and D2 (WO 2018/202535 A1) were compared under the above-specified conditions by the pre-emergence and post-emergence method. The example numbers given in the tables relate to the compounds disclosed in the respective documents. In addition to the compounds disclosed in D1 and D2, the following compounds V-1 to V-14 that are encompassed by D1 or D2 but are not compounds specified therein were used in the comparative experiments: • V-1: 2-(methylsulfanyl)-3-(methylsulfinyl)-N-(1-methyl-1H-tetrazol-5-yl)-4-(trifluoromethyl)benzamide • V-2: 2-(methylsulfanyl)-3-(methylsulfonyl)-N-(1-methyl-1H-tetrazol-5-yl)-4-(trifluoromethyl)benzamide • V-3: 2,3-bis(ethylsulfanyl)-N-(1-methyl-1H-tetrazol-5-yl)-4-(trifluoromethyl)benzamide • V-4: 2-chloro-3-(ethylsulfanyl)-N-(1-methyl-1H-tetrazol-5-yl)-4-(trifluoromethyl)benzamide • V-5: 2-chloro-4-iodo-3-(methylsulfanyl)-N-(1-methyl-1H-tetrazol-5-yl)benzamide • V-6: 2-chloro-4-iodo-3-(methylsulfinyl)-N-(1-methyl-1H-tetrazol-5-yl)benzamide • V-7: 2-chloro-4-iodo-3-(methylsulfonyl)-N-(1-methyl-1H-tetrazol-5-yl)benzamide • V-8: 2-bromo-3-(methylsulfanyl)-N-(1-methyl-1H-tetrazol-5-yl)-4-(trifluoromethyl)benzamide • V-9: 2-bromo-3-(methylsulfinyl)-N-(1-methyl-1H-tetrazol-5-yl)-4-(trifluoromethyl)benzamide • V-10: 2-bromo-3-(methylsulfonyl)-N-(1-methyl-1H-tetrazol-5-yl)-4-(trifluoromethyl)benzamide • V-11: 2-bromo-3-(ethylsulfanyl)-N-(1-methyl-1H-tetrazol-5-yl)-4-(trifluoromethyl)benzamide • V-12: 2-bromo-3-(ethylsulfinyl)-N-(1-methyl-1H-tetrazol-5-yl)-4-(trifluoromethyl)benzamide • V-13: 2-bromo-3-(ethylsulfonyl)-N-(1-methyl-1-1H-tetrazol-5-yl)-4-(trifluoromethyl)benzamide • V-14: 2-cyclopropyl-3-(ethylsulfanyl)-N-(1-methyl-1H-tetrazol-5-yl)-4-(trifluoromethyl)benzamide Herbicidal Pre-Emergence Action: […]

Amaranthus retroflexus [2] = experiment: Pre-emergence herbicidal action, AMARE; design: key to Herbicidal action against AMARE: % activity: 100 = plants have died, 0 = like control plants; conditions: for herbicidal action AMARE: dosage 320 g/ha
Description: as §1

Echinochloa crus-galli [3] = experiment: Pre-emergence herbicidal action, ECHCG; conditions: for herbicidal action ECHCG: dosage 320 g/ha
Description: as §1

Matricaria inodora [4] = experiment: Pre-emergence herbicidal action, MATIN; design: key to Herbicidal action against MATIN: % activity: 100 = plants have died, 0 = like control plants; conditions: for herbicidal action MATIN: dosage 320 g/ha
Description: as §1

Stellaria media [5] = experiment: Pre-emergence herbicidal action, STEME; design: key to Herbicidal action against STEME: % activity: 100 = plants have died, 0 = like control plants; conditions: for herbicidal action STEME: dosage 320 g/ha
Description: as §1

Veronica persica [6] = experiment: Pre-emergence herbicidal action, VERPE; design: key to Herbicidal action against VERPE: % activity: 100 = plants have died, 0 = like control plants; conditions: for herbicidal action VERPE: dosage 320 g/ha
Description: as §1

Viola tricolor [7] = experiment: Pre-emergence herbicidal action, VIOTR; design: key to Herbicidal action against VIOTR: % activity: 100 = plants have died, 0 = like control plants; conditions: for herbicidal action VIOTR: dosage 320 g/ha
Description: as §1

Amaranthus retroflexus [8] = experiment: Post-emergence herbicidal action, AMARE; design: key: % herbicidal action vs untreated; 100 = plants died, 0 = like control; conditions: for Herbicidal action against AMARE: post-emergence
Procedure: (§2) [table] 2. Post-Emergence Herbicidal Action Against Harmful Plants Seeds of monocotyledonous and dicotyledonous weed and crop plants are laid out in sandy loam soil in wood-fiber pots, covered with soil and cultivated in a greenhouse under good growth conditions. 2 to 3 weeks after sowing, the test plants are treated at the one-leaf stage. The compounds of the invention, formulated in the form of wettable powders (WP) or as emulsion concentrates (EC), are then sprayed onto the green parts of the plants in the form of an aqueous suspension or emulsion at a water application rate equating to 600 to 800 l/ha, with addition of 0.2% wetting agent. After the test plants have been left to stand in the greenhouse under optimal growth conditions for about 3 weeks, the action of the preparations is assessed visually in comparison to untreated controls (herbicidal action in percent (%): 100% activity=the plants have died, 0% activity=like control plants). […] The tables below illustrate, in an exemplary manner, the post-emergence herbicidal action of the compounds according to the invention, the herbicidal activity being stated in percent. In the experiments that follow, herbicidal action of numerous inventive compounds and the known compounds that are structurally closest from D1 (WO 2012/028579 A1) and D2 (WO 2018/202535 A1) were compared under the above-specified conditions by the pre-emergence and post-emergence method. The example numbers given in the tables relate to the compounds disclosed in the respective documents. In addition to the compounds disclosed in D1 and D2, the following compounds V-1 to V-14 that are encompassed by D1 or D2 but are not compounds specified therein were used in the comparative experiments: • V-1: 2-(methylsulfanyl)-3-(methylsulfinyl)-N-(1-methyl-1H-tetrazol-5-yl)-4-(trifluoromethyl)benzamide • V-2: 2-(methylsulfanyl)-3-(methylsulfonyl)-N-(1-methyl-1H-tetrazol-5-yl)-4-(trifluoromethyl)benzamide • V-3: 2,3-bis(ethylsulfanyl)-N-(1-methyl-1H-tetrazol-5-yl)-4-(trifluoromethyl)benzamide • V-4: 2-chloro-3-(ethylsulfanyl)-N-(1-methyl-1H-tetrazol-5-yl)-4-(trifluoromethyl)benzamide • V-5: 2-chloro-4-iodo-3-(methylsulfanyl)-N-(1-methyl-1H-tetrazol-5-yl)benzamide • V-6: 2-chloro-4-iodo-3-(methylsulfinyl)-N-(1-methyl-1H-tetrazol-5-yl)benzamide • V-7: 2-chloro-4-iodo-3-(methylsulfonyl)-N-(1-methyl-1H-tetrazol-5-yl)benzamide • V-8: 2-bromo-3-(methylsulfanyl)-N-(1-methyl-1H-tetrazol-5-yl)-4-(trifluoromethyl)benzamide • V-9: 2-bromo-3-(methylsulfinyl)-N-(1-methyl-1H-tetrazol-5-yl)-4-(trifluoromethyl)benzamide • V-10: 2-bromo-3-(methylsulfonyl)-N-(1-methyl-1H-tetrazol-5-yl)-4-(trifluoromethyl)benzamide • V-11: 2-bromo-3-(ethylsulfanyl)-N-(1-methyl-1H-tetrazol-5-yl)-4-(trifluoromethyl)benzamide • V-12: 2-bromo-3-(ethylsulfinyl)-N-(1-methyl-1H-tetrazol-5-yl)-4-(trifluoromethyl)benzamide • V-13: 2-bromo-3-(ethylsulfonyl)-N-(1-methyl-1-1H-tetrazol-5-yl)-4-(trifluoromethyl)benzamide • V-14: 2-cyclopropyl-3-(ethylsulfanyl)-N-(1-methyl-1H-tetrazol-5-yl)-4-(trifluoromethyl)benzamide Herbicidal Pre-Emergence Action: […]

Echinochloa crus-galli [9] = experiment: Post-emergence herbicidal action, ECHCG; design: key: % herbicidal action vs untreated; 100 = plants died, 0 = like control; conditions: for Herbicidal action against ECHCG: post-emergence
Procedure: as §2

Matricaria inodora [10] = experiment: Post-emergence herbicidal action, MATIN; design: key: % herbicidal action vs untreated; 100 = plants died, 0 = like control; conditions: for Herbicidal action against MATIN: post-emergence, dosage 80 g/ha
Procedure: as §2

Pharbitis purpurea = experiment: Post-emergence herbicidal action, PHBPU; conditions: for Herbicidal action against PHBPU: post-emergence, dosage 80 g/ha
Procedure: as §2

Setaria viridis = experiment: Post-emergence herbicidal action, SETVI; design: key: % herbicidal action vs untreated; 100 = plants died, 0 = like control; conditions: post-emergence
Procedure: as §2

Stellaria media [11] = experiment: Post-emergence herbicidal action, STEME; design: key: % herbicidal action vs untreated; 100 = plants died, 0 = like control; conditions: for Herbicidal action against STEME: post-emergence
Procedure: as §2

Veronica persica [12] = experiment: Post-emergence herbicidal action, VERPE; design: key: % herbicidal action vs untreated; 100 = plants died, 0 = like control; conditions: for Herbicidal action against VERPE: post-emergence
Procedure: as §2

Viola tricolor [13] = experiment: Post-emergence herbicidal action, VIOTR; design: key: % herbicidal action vs untreated; 100 = plants died, 0 = like control; conditions: for Herbicidal action against VIOTR: post-emergence
Procedure: as §2

Abutilon theophrasti [14] = experiment: Post-emergence herbicidal action, ABUTH; design: key: % herbicidal action vs untreated; 100 = plants died, 0 = like control; conditions: for Herbicidal action against ABUTH: post-emergence
Procedure: as §2

Avena fatua = experiment: Post-emergence herbicidal action, AVEFA; design: key: % herbicidal action vs untreated; 100 = plants died, 0 = like control; conditions: Dosage 80 g/ha
Procedure: as §2

[15] = comparative experiment, 20 g of a.i./ha
[16] = comparative experiment, 5 g of a.i./ha

Compound | herbicidal action ABUTH (Abutilon theophrasti [1]) | herbicidal action AMARE (Amaranthus retroflexus [2]) | herbicidal action ECHCG (Echinochloa crus-galli [3]) | herbicidal action MATIN (Matricaria inodora [4]) | herbicidal action STEME (Stellaria media [5]) | herbicidal action VERPE (Veronica persica [6]) | herbicidal action VIOTR (Viola tricolor [7]) | Herbicidal action against AMARE (Amaranthus retroflexus [8]; dosage 80 g/ha) | Herbicidal action against ECHCG (Echinochloa crus-galli [9]; dosage 80 g/ha) | Herbicidal action against MATIN (Matricaria inodora [10]) | Herbicidal action against PHBPU (Pharbitis purpurea) | Herbicidal action against SETVI (Setaria viridis; dosage 80 g/ha) | Herbicidal action against STEME (Stellaria media [11]; dosage 80 g/ha) | Herbicidal action against VERPE (Veronica persica [12]; dosage 80 g/ha) | Herbicidal action against VIOTR (Viola tricolor [13]; dosage 80 g/ha) | Herbicidal action against ABUTH (Abutilon theophrasti [14]; dosage 80 g/ha) | further results
COc1c(C(=O)Nc2nnnn2C)ccc(C(F)(F)F)c1CS(C)(=O)=O [Example 1-136] | 100% | 100% | 100% | 90% | 80% | 100% | 80% | 90 | 90 | 90 | 90 | 90 | 100 | 100 | 90 | – | –
CSCc1c(S(C)(=O)=O)ccc(C(=O)Nc2nnnn2C)c1Cl [Example 1-278] | 90% | 100% | 90% | – | 80% | 90% | – | 100 | 100 | – | 90 | 100 | 90 | – | 100 | 90 | –
Cn1nnnc1NC(=O)c1ccc(C(F)(F)F)c(CS(=O)(=O)CC(F)(F)F)c1Cl [Example 1-313] | 100% | 100% | – | – | 90% | – | – | 90 | – | 90 | 90 | 80 | 100 | 80 | 80 | 100 | –
CCn1nnnc1NC(=O)c1ccc(S(C)(=O)=O)c(CSC)c1Cl [Example 2-278] | 100% | 90% | – | 90% | – | 100% | – | – | – | – | – | – | – | – | – | – | herbicidal action ABUTH (Abutilon theophrasti [14]; Dosage 80 g/ha): 90; herbicidal action AVEFA (Avena fatua): 100; herbicidal action AMARE (Amaranthus retroflexus [8]; Dosage 80 g/ha): 90; herbicidal action ECHCG (Echinochloa crus-galli [9]; Dosage 80 g/ha): 100; herbicidal action MATIN (Matricaria inodora [10]; Dosage 80 g/ha): 90; herbicidal action PHBPU (Pharbitis purpurea; Dosage 80 g/ha): 80; herbicidal action STEME (Stellaria media [11]; Dosage 80 g/ha): 80; herbicidal action VERPE (Veronica persica [12]; Dosage 80 g/ha): 100; herbicidal action VIOTR (Viola tricolor [13]; Dosage 80 g/ha): 100
CCCn1nnnc1NC(=O)c1ccc(C)c(CSC)c1Cl [Example 3-287] | – | 100% | 100% | 100% | 90% | 90% | 80% | 100 | 90 | 100 | 80 | – | 100 | – | 90 | 90 | –
CCSc1c(C(=O)Nc2nnnn2C)ccc(C(F)(F)F)c1SCC [Example V-3, 2,3-bis(ethylsulfanyl)-N-(1-methyl-1H-tetrazol-5-yl)-4-(trifluoromethyl)benzamide, reference compound] | – | – | – | – | – | – | – | – | – | – | – | – | – | – | – | – | Herbicidal action against AMARE (Amaranthus retroflexus [2]; [15]): 0; pest or weed control at 20 g/ha (Echinochloa crus-galli [3]; Echinochloa crus-galli, 504 h, comparative experiment, 20 g of a.i./ha, read-out: Herbicidal action against ECHCG): 0%; Herbicidal action against MATIN (Matricaria inodora [4]; [15]): 0; Herbicidal action against STEME (Stellaria media [5]; [15]): 0; Herbicidal action against VERPE (Veronica persica [6]; [15]): 0; Herbicidal action against VIOTR (Viola tricolor [7]; [15]): 0; Herbicidal action against ABUTH (Abutilon theophrasti [14]; [16]): 0; Herbicidal action against AMARE (Amaranthus retroflexus [8]; [16]): 0; Herbicidal action against ECHCG (Echinochloa crus-galli [9]; [16]): 0; Herbicidal action against SETVI (Setaria viridis; [16]): 0; Herbicidal action against STEME (Stellaria media [11]; [16]): 0; Herbicidal action against VERPE (Veronica persica [12]; [16]): 0; Herbicidal action against VIOTR (Viola tricolor [13]; [16]): 0
